Columns and labels:
[1] = target: T1, DNA topoisomerase I (topo I) (Bos taurus, UniProt F1MN93); assay: Topo I inhibitory activity (pBR322); assay type: biochemical; settings: at 100 µM
T1 construct: purchased Takara Bio Inc. (Shiga, Japan)
T1 sequence (F1MN93 1-767): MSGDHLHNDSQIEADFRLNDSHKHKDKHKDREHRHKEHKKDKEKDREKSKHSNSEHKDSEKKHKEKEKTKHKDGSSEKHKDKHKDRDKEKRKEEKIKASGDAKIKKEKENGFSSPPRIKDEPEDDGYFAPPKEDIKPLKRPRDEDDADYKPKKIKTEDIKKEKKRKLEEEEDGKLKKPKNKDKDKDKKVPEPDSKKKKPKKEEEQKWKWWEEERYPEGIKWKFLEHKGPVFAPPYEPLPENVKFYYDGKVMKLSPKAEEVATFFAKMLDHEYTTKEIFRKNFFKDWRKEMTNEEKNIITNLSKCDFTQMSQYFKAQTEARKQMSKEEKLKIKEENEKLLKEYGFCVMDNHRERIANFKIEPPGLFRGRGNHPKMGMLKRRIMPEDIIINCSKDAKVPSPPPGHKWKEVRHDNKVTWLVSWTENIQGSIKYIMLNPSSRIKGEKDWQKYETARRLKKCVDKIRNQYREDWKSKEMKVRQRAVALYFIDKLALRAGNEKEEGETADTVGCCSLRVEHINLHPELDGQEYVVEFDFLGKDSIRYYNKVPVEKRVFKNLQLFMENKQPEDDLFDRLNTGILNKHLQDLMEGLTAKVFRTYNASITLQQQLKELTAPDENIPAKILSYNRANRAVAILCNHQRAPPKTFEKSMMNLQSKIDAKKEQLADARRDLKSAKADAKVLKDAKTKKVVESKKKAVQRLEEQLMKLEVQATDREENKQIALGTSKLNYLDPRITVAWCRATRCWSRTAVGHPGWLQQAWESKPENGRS

[2] = system: subintestinal veins (SIVs) in zebrafish embryos; assay: Zebrafish angiogenesis assay (subintestinal veins, NBT/BCIP staining); assay type: in vivo; settings: zebrafish embryos, 1 mg/mL, compared with blank control group
[3] = system: bladder cancer cells (T24); assay: MTT antiproliferative assay, T24; assay type: cell-based, human; settings: Homo sapiens, read-out: Effect against cell viability (IC50), T24

For `COc1ccc(-c2nnc(N=C3c4ccccc4NC4C=CC(C)=CC34)s2)cc1` (stereo not drawn) [6h, 7-methyl-N-(5-(4-methoxyphenyl)-1,3,4-thiadiazol-2-yl)-10,10a-dihydroacridin-9(8aH)-imine], the “topo I inhibitory activity” value [1] was “potent”, the “area of the meshed pattern vessel and number of vascular branches in the network” value [2] was “decreased” and the IC50 [3] was 8.93 ± 1.25 µM.

Source: publication PMC9820444, “Design and Synthesis of Acridine-Triazole and Acridine-Thiadiazole Derivatives and Their Inhibitory Effect against Cancer Cells” (International Journal of Molecular Sciences, 2022)
